Assay results as given in article PMC5577582 (Toxins, 2017).
Positions of bridges follow the written chain, without caps; N, C: chain ends. Residues, ends and D or L forms follow the SMILES beside them.

Tests used:
[1] = assay type: physicochemical; settings: peptide 1 mg/mL in 9:1 v/v H2O/D2O, heated 20 to 80 °C, 500 MHz 1D 1H NMR
Experimental: A Bruker 500 MHz Avance nuclear magnetic resonance (NMR) spectrometer was used to heat the peptides (1 mg/mL in 9:1 v/v H2O/D2O) and to monitor structural changes at temperatures ranging from 20 to 80 °C. One-dimensional (1D) ^1H NMR spectra and two-dimensional (2D) nuclear Overhauser effect spectroscopy (NOESY) (200 ms mixing time) spectra were acquired and processed using TopSpin 3.5 (Bruker, Billerica, MA, USA) and CCPNMR Analysis 2.4.1 was used in the assignment of the NOE spectra.

[2] = 30 μM peptide, 24 h; for Degradation at pH 12: phosphate buffer pH 12, 37 °C, RP-HPLC trace compared to pH 4
[3] = assay type: physicochemical; settings: 100 °C in water for 30 min, heating block, cooled to 25 °C, C18 RP-HPLC at 215 nm, MALDI-MS of the products
[4] = Human serum isolated from male AB plasma; settings: 37 °C, up to 24 h
[5] = phosphate buffer adjusted to pH 12; settings: 37 °C, up to 24 h

Compound | 1D 1H NMR spectral changes at 80 °C [1] | not cleaved [4] | also measured
CC[C@H](C)[C@H](NC(=O)[C@H](CCC(=O)O)NC(=O)[C@H](Cc1ccc(O)cc1)NC(=O)[C@H](CCCCN)NC(=O)[C@@H]1CSSC[C@@H]2NC(=O)[C@H](CCC(N)=O)NC(=O)[C@H](CC(=O)O)NC(=O)[C@H](CC(N)=O)NC(=O)[C@H](CO)NC(=O)[C@@H]3CCCN3C(=O)[C@H](CC(N)=O)NC(=O)[C@@H]3CSSC[C@H](NC(=O)[C@H](C(C)C)NC(=O)[C@H](CC(C)C)NC(=O)[C@H](CC(N)=O)NC(=O)[C@H](CO)NC(=O)[C@H](CO)NC(=O)[C@H](CCCCN)NC(=O)[C@H](CSSC[C@H](NC(=O)[C@@H](N)CCC(=O)O)C(=O)N[C@@H](CC(C)C)C(=O)NCC(=O)N[C@@H](Cc4ccccc4)C(=O)NCC(=O)N[C@@H](CCCCN)C(=O)NCC(=O)N3)NC2=O)C(=O)N[C@@H](CO)C(=O)N[C@@H](CCCNC(=N)N)C(=O)N[C@@H](CCCCN)C(=O)N[C@@H](Cc2c[nH]cn2)C(=O)N[C@@H](CCCNC(=N)N)C(=O)N[C@@H](Cc2c[nH]c3ccccc23)C(=O)N1)C(N)=O [HnTx-IV] | peak broadening and loss of intensity |  | Degradation at pH 12 [2]: completely degraded
CC[C@H](C)[C@H](NC(=O)[C@H](CCC(N)=O)NC(=O)[C@H](Cc1ccc(O)cc1)NC(=O)[C@H](CCCCN)NC(=O)[C@@H]1CSSC[C@@H]2NC(=O)[C@H](CCCCN)NC(=O)[C@H](CC(=O)O)NC(=O)[C@H](CC(N)=O)NC(=O)[C@H](CO)NC(=O)[C@@H]3CCCN3C(=O)[C@H](CC(N)=O)NC(=O)[C@@H]3CSSC[C@H](NC(=O)[C@H](C(C)C)NC(=O)[C@H](CC(C)C)NC(=O)[C@H](CC(N)=O)NC(=O)[C@@H]4CCCN4C(=O)[C@H](CCCNC(=N)N)NC(=O)[C@H](CSSC[C@H](NC(=O)[C@@H](N)CC(=O)O)C(=O)N[C@@H](CC(C)C)C(=O)NCC(=O)N[C@@H](Cc4ccccc4)C(=O)N[C@@H](CC(C)C)C(=O)N[C@@H](Cc4c[nH]c5ccccc45)C(=O)N[C@@H](CCCCN)C(=O)N3)NC2=O)C(=O)N[C@@H](CO)C(=O)N[C@@H](CCCNC(=N)N)C(=O)N[C@@H](CCCCN)C(=O)N[C@@H](CC(=O)O)C(=O)N[C@@H](CCCCN)C(=O)N[C@@H](Cc2c[nH]c3ccccc23)C(=O)N1)C(=O)O [PaurTx-3] (H-DCLGFLWKCNPSNDKCCRPNLVCSRKDKWCKYQI-OH; disulfide 2-17, 9-23, 16-30) | maintained narrow peaks but also showed some loss in intensity |  | Degradation at pH 12 [2]: larger proportion of the folded peptide remaining
CC(C)C[C@@H]1NC(=O)[C@H](Cc2c[nH]cn2)NC(=O)[C@H](CCCCN)NC(=O)[C@@H]2CSSC[C@H](NC(=O)[C@@H](N)[C@@H](C)O)C(=O)N[C@@H](CCCNC(=N)N)C(=O)N[C@@H](Cc3ccc(O)cc3)C(=O)N[C@@H](CC(C)C)C(=O)N[C@@H](Cc3ccccc3)C(=O)NCC(=O)NCC(=O)N[C@H]3CSSC[C@H](NC(=O)[C@H](C)NC1=O)C(=O)N[C@@H](CCCNC(=N)N)C(=O)N[C@@H](CO)C(=O)N[C@@H](CC(=O)O)C(=O)NCC(=O)N[C@@H](CCCCN)C(=O)N[C@@H](Cc1ccc(O)cc1)C(=O)N[C@H](C(=O)N[C@@H](C)C(=O)N[C@@H](Cc1c[nH]c4ccccc14)C(=O)N[C@@H](CC(=O)O)C(=O)NCC(=O)N[C@H](C(=O)N[C@@H](Cc1ccccc1)C(=O)O)[C@@H](C)O)CSSC[C@H](NC(=O)[C@H](CC(=O)O)NC(=O)[C@H](C)NC(=O)[C@H]([C@@H](C)O)NC(=O)[C@H]([C@@H](C)O)NC(=O)[C@H](CCCCN)NC3=O)C(=O)N2 [SgTx-1] | peak broadening and loss of intensity |  | Mass loss of degradation product from native peptide after boiling: 18 Da; Loss of peptide at pH 2 ([2]; phosphate buffer pH 2, 37 °C, RP-HPLC relative to pH 4): small loss of peptide; Analytical RP-HPLC trace after boiling [3]: minor degradation product
DCLGFLWKCNPSNDKCCRPNLVCSRKDKWCKYQI |  | more than 90% peptide remaining after a 24 h incubation | cleaved bond [5]: Q-Ile34, 24 h
DCLGFMRKCIPDNDKCCRPNLVCSRTHKWCKYVF* |  | more than 90% peptide remaining after a 24 h incubation | 
ECLEIFKACNPSNDQCCKSSKLVCSRKTRWCKYQI* |  | more than 90% peptide remaining after a 24 h incubation | 
ECLGFGKGCNPSNDQCCKSSNLVCSRKHRWCKYEI* |  | more than 90% peptide remaining after a 24 h incubation | 
